Where two headings read alike, the source gives them in different places.
Experiments:
[1] = target: T1, Wee1A kinase (CDK1 Tyr15 phosphorylation in ACHN renal cell carcinoma cells) (Homo sapiens, UniProt P30291); assay: High-content imaging of pCdk1 Y15, Wee1A kinase target engagement in ACHN cells; format: cell-based
T1 construct: pCDK1 Tyr15 immunofluorescence read-out
Method in brief: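 EC50 values come from the per-well fraction of cells with nuclear pCdk1 Y15 staining, normalised to DMSO control, by automated immunofluorescence imaging. Cells were ACHN renal carcinoma, treated 4 h with compound at 7–5,000 nM or 0.3–200 nM.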

[2] = target: T2, Myt1 kinase (recombinant PMYT-1) (Homo sapiens, UniProt Q99640); assay: Myt1 kinase binding assay (LanthaScreen Eu Kinase Binding Assay)
T2 construct: full length PMYT-1 was expressed by baculovirus in insect cells; purchased Invitrogen A30984; host or cells: insect cells (baculovirus)
T2 sequence (Q99640 1-499): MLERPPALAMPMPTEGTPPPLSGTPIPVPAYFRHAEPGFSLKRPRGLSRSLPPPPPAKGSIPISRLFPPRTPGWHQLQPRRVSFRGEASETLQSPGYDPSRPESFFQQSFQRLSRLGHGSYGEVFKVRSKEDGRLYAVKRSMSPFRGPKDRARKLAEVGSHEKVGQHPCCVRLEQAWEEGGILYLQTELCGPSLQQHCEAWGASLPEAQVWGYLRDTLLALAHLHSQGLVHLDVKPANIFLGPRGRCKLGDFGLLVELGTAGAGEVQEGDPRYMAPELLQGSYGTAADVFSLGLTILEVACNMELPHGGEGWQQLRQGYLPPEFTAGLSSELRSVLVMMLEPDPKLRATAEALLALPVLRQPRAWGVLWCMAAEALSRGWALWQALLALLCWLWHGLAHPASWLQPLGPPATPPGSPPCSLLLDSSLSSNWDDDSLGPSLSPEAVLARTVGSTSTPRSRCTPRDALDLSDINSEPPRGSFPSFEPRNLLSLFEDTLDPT
Method in brief: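 Compound binding to Myt1 kinase was assessed using the LanthaScreen Eu Kinase Binding Assay. This europium-based binding format was applied to quantify how strongly each compound bound to the Myt1 enzyme, and the binding affinity was reported for each compound as an IC50 value.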

[3] = target: T3, recombinant human Wee1A kinase (Homo sapiens, UniProt P30291); assay: Wee1A kinase binding assay (LanthaScreen Eu time-resolved FRET)
T3 construct: full length Wee1 kinase was expressed by baculovirus in insect cells; purchased Invitrogen PV3817; host or cells: insect cells (baculovirus)
Method in brief: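 Full-length, baculovirus-expressed GST-tagged Wee1A (5 nM) was mixed with 2 nM Eu-anti-GST antibody, 30 nM kinase tracer 178 and compound (1% DMSO). Buffer was 50 mM HEPES pH 7.5, 10 mM MgCl2, 1 mM EGTA, 0.01% Brij-35, incubated 60 min at room temperature. TR-FRET 665/615 nm emission ratios from duplicates were curve-fitted.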

ACHN cells = assay: Cell Titer Glo viability assay, ACHN cells; format: cell-based; details: Homo sapiens, 144 h, absolute EC50
Description: Each of an ACHN renal cell carcinoma cell line (ATCC) and a DAOY medulloblastoma cell line, and an A427 lung cancer line were cultured in Minimum Essential Medium Eagle supplemented with 10% fetal calf serum (Sigma), 1% Penicillin-Streptomycin and 10 mM HEPES buffer (HyClone). Cell cultures were kept in a humidified incubator at 37 °C and 5% CO2. Cells were routinely tested for Mycoplasma contamination.
ACHN cells, DAOY cells, or A427 cells were seeded at a density of 400, 250, or 500 cells per well respectively, in tissue culture treated 384 well plates (Corning Costar). After overnight incubation, cells were treated with drugs at concentrations ranging from 17 to 10 000 nM. Viability compared to untreated control was assessed at 144 h using Cell Titer Glo assay 2.0 (Promega). […] “NT” means the compounds was not tested in the indicated cells.

[4] = 4 h treatment, nuclear positivity for pCdk1 Y15 vs DMSO control, read-out: CDK1 Tyr15 Phosphorylation EC50
[5] = 3 nM tracer 178, 2.5 nM PMYT-1, 1 nM Eu-labeled antibody, read-out: Myt1 kinase Binding IC50
[6] = 30 nM tracer 178, 5 nM Wee1A kinase, 2 nM Eu-labeled antibody, 60 minutes at room temperature, read-out: Wee1A kinase Binding IC50
[7] = read-out: CDK1 Tyr15 Phosphorylation EC50, 4 h treatment, nuclear positivity for pCdk1 Y15 vs DMSO control
[8] = Myt1 kinase Binding IC50, 3 nM tracer 178, 2.5 nM PMYT-1, 1 nM Eu-labeled antibody

T1 sequence (P30291 whole entry): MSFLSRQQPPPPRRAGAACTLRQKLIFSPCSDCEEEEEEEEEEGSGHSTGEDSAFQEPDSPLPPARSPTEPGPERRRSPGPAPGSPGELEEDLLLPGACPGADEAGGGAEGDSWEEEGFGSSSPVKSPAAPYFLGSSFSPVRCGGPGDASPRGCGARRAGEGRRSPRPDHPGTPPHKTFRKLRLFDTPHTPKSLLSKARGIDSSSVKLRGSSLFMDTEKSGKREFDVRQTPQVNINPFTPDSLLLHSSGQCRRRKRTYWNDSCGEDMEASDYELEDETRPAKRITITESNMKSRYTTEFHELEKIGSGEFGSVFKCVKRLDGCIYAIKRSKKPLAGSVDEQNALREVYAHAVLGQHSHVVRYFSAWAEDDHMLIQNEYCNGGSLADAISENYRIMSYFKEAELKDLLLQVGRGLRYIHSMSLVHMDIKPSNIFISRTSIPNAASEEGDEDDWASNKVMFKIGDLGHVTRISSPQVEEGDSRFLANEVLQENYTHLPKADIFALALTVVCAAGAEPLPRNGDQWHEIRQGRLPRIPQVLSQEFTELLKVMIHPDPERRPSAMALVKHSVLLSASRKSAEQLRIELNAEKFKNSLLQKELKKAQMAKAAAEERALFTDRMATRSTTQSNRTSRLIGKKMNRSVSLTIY
T3 sequence (P30291 whole entry): as above

Row | Structure (SMILES) | EC50 [1, 4] | IC50 [2, 5] | IC50 [3, 6] | EC50 (ACHN cells) | EC50 [1, 7] | IC50 [2, 8] | IC50 [3]
1 | C=CCn1c(=O)c2cnc(Nc3ccc4c(cnn4C)c3)nc2n1-c1cccc(O[C@@H]2CCCNC2)n1 [Compound 103, 6-[(1-Methyl-1H-indazol-5-yl)amino]-1-{6-[(3R)-piperidin-3-yloxy]pyridin-2-yl}-2-(prop-2-en-1-yl)-1H,2H,3H-pyrazolo[3,4-d]pyrimidin-3-one; bis(trifluoroacetic acid)] | < 100 nM | 100 to 500 nM | < 10 nM | 100 to 500 nM |  |  | 
2 | C=CCn1c(=O)c2cnc(Nc3ccc(OC)c(C)c3)nc2n1-c1cccc(NC2CCNCC2)n1 [Compound 127, 2-allyl-6-(4-methoxy-3-toluidino)-1-[6-(4-piperidylamino)-2-pyridyl]-1,2-dihydro-3H-1,2,5,7-tetraazainden-3-one] | 100 to 500 nM | 100 to 500 nM | < 10 nM | 500 to 1000 nM |  |  | 
3 | C=CCn1c(=O)c2cnc(Nc3ccc4c(cnn4C)c3)nc2n1-c1cccc(N(C)C2CCNCC2)n1 [Compound 116, 1-[6-(N-methyl-N-4-piperidylamino)-2-pyridyl]-2-allyl-6-(1-methyl-1H-indazol-5-ylamino)-1,2-dihydro-3H-1,2,5,7-tetraazainden-3-one] |  |  |  | 100 to 500 nM | < 100 nM | > 500 nM | < 10 nM
4 | C=CCn1c(=O)c2cnc(Nc3ccc(OCC(C)C)cc3)nc2n1-c1cccc(OC2CCNCC2)n1 [Compound 256, 2-allyl-6-((4-isobutoxyphenyl)amino)-1-(6-(piperidin-4-yloxy)pyridin-2-yl)-1,2-dihydro-3H-pyrazolo[3,4-d]pyrimidin-3-one] | < 100 nM | < 20 nM | < 10 nM | ≤ 100 nM |  |  | 
5 | CCn1c(=O)c2cnc(Nc3cccc(C)c3)nc2n1-c1cccc(OC2CCNCC2)n1 [Compound 298, 2-ethyl-1-[6-(4-piperidyloxy)-2-pyridyl]-6-m-toluidino-1,2-dihydro-3H-1,2,5,7-tetraazainden-3-one] | 100 to 500 nM | 100 to 500 nM | < 10 nM | 100 to 500 nM |  |  | 
6 | C=CCn1c(=O)c2cnc(Nc3ccc(Cl)cc3)nc2n1-c1cccc(N(C)C2CCN(C)CC2)n1 [Compound 157, 6-[(4-chlorophenyl)amino]-1-{6-[methyl(1-methylpiperidin-4-yl)amino]pyridin-2-yl}-2-(prop-2-en-1-yl)-1H,2H,3H-pyrazolo[3,4-d]pyrimidin-3-one] |  |  |  | 100 to 500 nM | 100 to 500 nM | > 500 nM | < 10 nM
7 | C=CCn1c(=O)c2cnc(Nc3ccc4ccncc4c3)nc2n1-c1cccc(OC2CCNCC2)n1 [Compound 240, 2-allyl-6-(7-isoquinolylamino)-1-[6-(4-piperidyloxy)-2-pyridyl]-1,2-dihydro-3H-1,2,5,7-tetraazainden-3-one] | 100 to 500 nM | 20 to 100 nM | < 10 nM | 100 to 500 nM |  |  | 
8 | C=CCn1c(=O)c2cnc(Nc3cnn(C)c3)nc2n1-c1cccc(O[C@H]2CN3CCC2CC3)n1 [Compound 172, 1-{6-[(3R)-1-azabicyclo[2.2.2]octan-3-yloxy]pyridin-2-yl}-6-[(1-methyl-1H-pyrazol-4-yl)amino]-2-(prop-2-en-1-yl)-1H,2H,3H-pyrazolo[3,4-d]pyrimidin-3-one] |  |  |  | > 1000 nM | > 1000 nM | > 500 nM | < 10 nM
9 | C=CCn1c(=O)c2cnc(Nc3ccc(F)cc3)nc2n1-c1cccc(OC2CCCN(C)CC2)n1 (stereo not drawn) [Compound 317, 2-allyl-6-(p-fluorophenylamino)-1-[6-(1-methyl-4-azepanyloxy)-2-pyridyl]-1,2-dihydro-3H-1,2,5,7-tetraazainden-3-one] | 100 to 500 nM | 20 to 100 nM | < 10 nM | 100 to 500 nM |  |  | 
10 | C=CCn1c(=O)c2cnc(Nc3ccc4c(cnn4C)c3)nc2n1-c1cccc(N[C@@H]2CCNC2)n1 [Compound 102, 1-{6-[(R)-3-pyrrolidinylamino]-2-pyridyl}-2-allyl-6-(1-methyl-1H-indazol-5-ylamino)-1,2-dihydro-3H-1,2,5,7-tetraazainden-3-one] | > 1000 nM | 20 to 100 nM | < 10 nM | > 1000 nM |  |  | 

Results, then the molecule that gave them:

Row | EC50 [1, 4] | IC50 [2, 5] | IC50 [3, 6] | EC50 (ACHN cells) | EC50 [1, 7] | IC50 [2, 8] | IC50 [3] | Structure (SMILES)
11 | < 100 nM | 100 to 500 nM | < 10 nM | 100 to 500 nM |  |  |  | C=CCn1c(=O)c2cnc(Nc3ccc4c(cnn4C)c3)nc2n1-c1cccc(O[C@H]2CCCN(C)C2)n1 [Compound 332, 1-{6-[(S)-1-methyl-3-piperidyloxy]-2-pyridyl}-2-allyl-6-(1-methyl-1H-indazol-5-ylamino)-1,2-dihydro-3H-1,2,5,7-tetraazainden-3-one]
12 | < 100 nM | 100 to 500 nM | < 10 nM | ≤ 100 nM |  |  |  | C=CCn1c(=O)c2cnc(Nc3ccc4c(cnn4C)c3)nc2n1-c1cccc(OC2CCN(C)CC2)c1 [Compound 220, 2-allyl-6-(1-methyl-1H-indazol-5-ylamino)-1-[m-(1-methyl-4-piperidyloxy)phenyl]-1,2-dihydro-3H-1,2,5,7-tetraazainden-3-one]
13 | < 100 nM | 20 to 100 nM | < 10 nM | ≤ 100 nM |  |  |  | C=CCn1c(=O)c2cnc(Nc3cccc(C#N)c3)nc2n1-c1cccc(OC2CCN(C)CC2)n1 [Compound 305, m-{2-allyl-1-[6-(1-methyl-4-piperidyloxy)-2-pyridyl]-3-oxo-1,2-dihydro-3H-1,2,5,7-tetraazainden-6-ylamino}benzonitrile]
14 | < 100 nM | 20 to 100 nM | < 10 nM | ≤ 100 nM |  |  |  | [2H]C([2H])([2H])c1cccc(Nc2ncc3c(=O)n(CC=C)n(-c4cccc(OC5CCNCC5)n4)c3n2)c1 [Compound 334, 2-allyl-6-((3-(methyl-d3)phenyl)amino)-1-(6-(piperidin-4-yloxy)pyridin-2-yl)-1,2-dihydro-3H-pyrazolo[3,4-d]pyrimidin-3-one]
15 | < 100 nM | < 20 nM | < 10 nM | ≤ 100 nM |  |  |  | C=CCn1c(=O)c2cnc(Nc3ccc(OCCCF)cc3)nc2n1-c1cccc(OC2CCNCC2)n1 [Compound 377]
16 | < 100 nM | 20 to 100 nM | < 10 nM | ≤ 100 nM |  |  |  | C=CCn1c(=O)c2cnc(Nc3ccc(OCC(F)(F)F)cc3)nc2n1-c1ccnc(NC2CCN(C)CC2)n1 [Compound 314, 2-allyl-1-[2-(1-methyl-4-piperidylamino)-4-pyrimidinyl]-6-[p-(2,2,2-trifluoroethoxy)phenylamino]-1,2-dihydro-3H-1,2,5,7-tetraazainden-3-one]
17 | < 100 nM | 20 to 100 nM | < 10 nM | ≤ 100 nM |  |  |  | C=CCn1c(=O)c2cnc(Nc3cncc(C)c3)nc2n1-c1cccc(OC2CCN(C)CC2)n1 [Compound 292, 1-{6-[(1-methylpiperidin-4-yl)oxy]pyridin-2-yl}-6-[(5-methylpyridin-3-yl)amino]-2-(prop-2-en-1-yl)-1H,2H,3H-pyrazolo[3,4-d]pyrimidin-3-one]
18 | < 100 nM | 100 to 500 nM | < 10 nM | ≤ 100 nM |  |  |  | C=CCn1c(=O)c2cnc(Nc3ccc4c(cnn4C)c3)nc2n1-c1cccc(N[C@@H]2CCN(CC)C2)n1 [Compound 119, 1-(6-{[(3R)-1-ethylpyrrolidin-3-yl]amino}pyridin-2-yl)-6-[(1-methyl-1H-indazol-5-yl)amino]-2-(prop-2-en-1-yl)-1H,2H,3H-pyrazolo[3,4-d]pyrimidin-3-one]

Reference: US20260364080A1, “PYRAZOLO-PYRIMIDINONE COMPOUNDS FOR USE IN METHODS OF INHIBITING WEE1 A KINASE” (Acrivon Therapeutics, Inc., priority 2023, published 2026)
